Measurements from paper PMC11995216, “End-to-End Backbone Cyclization Enhances Passive Permeability of bRo5 Oligomeric Depsipeptides with Nonlinear Size Dependence” (ACS Medicinal Chemistry Letters, 2025).
Where “and” joins values, the source holds several entries; their conditions need not be identical. Identical values can stand only once. Like-named read-outs stand apart in the source and are kept apart here. Each block holds one compound with its values, some of them ahead of it. Starred links: 1 amine or outer side, 2 acyl side, 3 side chain; linkers in the order of their positions; H or OH if unused. Non-standard residues stand in square brackets, D forms with d. Residues, ends and D or L forms follow the SMILES beside them. *: point of attachment. X2 = CCCCC[C@H](O*)C(=O)OCc1ccccc1; X1 = CCCCC[C@H](O[*:1])C(=O)[*:2]; Ahp(2) = CCCCC[C@H](N)C(=O)O; dNMeA = CN[C@H](C)C(=O)O; Boc = CC(C)(C)OC(=O)*

How the values were obtained:
[1] = calculated using Supplement Equation 1, UV detection
PAMPA [2] = details: UV detection
[3] = UV detection
PAMPA [4] = details: UV detection, initial concentration 500 uM
[5] = PAMPA, 500 uM
in vitro = details: PAMPA, Papp
[6] = initial concentration 500 uM, UV detection
[7] = Acceptor Concentration (uM) / [row 1]
[8] = Acceptor Concentration (uM) / [row 2]
[9] = Acceptor Concentration (uM) / [row 3]
[10] = Acceptor Concentration (uM) / [row 4]
[11] = Acceptor Concentration (uM) / [row 5]
[12] = Acceptor Concentration (uM) / [row 6]
[13] = Acceptor Concentration (uM) / [row 7]
[14] = Acceptor Concentration (uM) / [row 8]
[15] = Acceptor Concentration (uM) / [row 9]
[16] = Acceptor Concentration (uM) / [row 10]

- %T ([1]; Well 1 / %T, Well 1): 0.25% (2×) and 0.31% (2×)
- %T ([1]; Well 2 / %T, Well 2): 0.3% (2×) and 0.25% (2×)
- %T ([1]; Well 3 / %T, Well 3): 0.3% (2×) and 0.28% (2×)
- %T ([1]; Well 4 / %T, Well 4): 0.31% (2×) and 0.32% (2×)
- %T ([1]; Well 5 / %T, Well 5): 0.33% (2×) and 0.26% (2×)
- Papp (PAMPA [2]; Papp (x 10^-6 cm/s) / [row 1]): 1.61 ×10⁻⁶ cm/s
- Papp (PAMPA [2]; Papp (x 10^-6 cm/s) / [row 2]): 2.02 ×10⁻⁶ cm/s
- Papp (PAMPA [2]; Papp (x 10^-6 cm/s) / [row 3]): 2.01 ×10⁻⁶ cm/s
- Papp (PAMPA [2]; Papp (x 10^-6 cm/s) / [row 4]): 2.03 ×10⁻⁶ cm/s
- Papp (PAMPA [2]; Papp (x 10^-6 cm/s) / [row 5]): 2.24 ×10⁻⁶ cm/s
- Papp (PAMPA [2]; Papp (x 10^-6 cm/s) / [row 6]): 2.09 ×10⁻⁶ cm/s
- Papp (PAMPA [2]; Papp (x 10^-6 cm/s) / [row 7]): 1.63 ×10⁻⁶ cm/s
- Papp (PAMPA [2]; Papp (x 10^-6 cm/s) / [row 8]): 1.88 ×10⁻⁶ cm/s
- Papp (PAMPA [2]; Papp (x 10^-6 cm/s) / [row 9]): 2.15 ×10⁻⁶ cm/s
- Papp (PAMPA [2]; Papp (x 10^-6 cm/s) / [row 10]): 1.75 ×10⁻⁶ cm/s
- Papp (PAMPA [2]; Papp (x 10^-6 cm/s) / experiment 1): 1.61 ×10⁻⁶ cm/s
- Papp (PAMPA [2]; Papp (x 10^-6 cm/s) / experiment 2): 2.02 ×10⁻⁶ cm/s
- Papp (PAMPA [2]; Papp (x 10^-6 cm/s) / experiment 3): 2.01 ×10⁻⁶ cm/s
- Papp (PAMPA [2]; Papp (x 10^-6 cm/s) / experiment 4): 2.03 ×10⁻⁶ cm/s
- Papp (PAMPA [2]; Papp (x 10^-6 cm/s) / experiment 5): 2.24 ×10⁻⁶ cm/s
- Papp (PAMPA [2]; Papp (x 10^-6 cm/s) / experiment 6): 2.09 ×10⁻⁶ cm/s
- Papp (PAMPA [2]; Papp (x 10^-6 cm/s) / experiment 7): 1.63 ×10⁻⁶ cm/s
- Papp (PAMPA [2]; Papp (x 10^-6 cm/s) / experiment 8): 1.88 ×10⁻⁶ cm/s
- Papp (PAMPA [2]; Papp (x 10^-6 cm/s) / experiment 9): 2.15 ×10⁻⁶ cm/s
- Papp (PAMPA [2]; Papp (x 10^-6 cm/s) / experiment 10): 1.75 ×10⁻⁶ cm/s
- % recovery ([3]; Well 1 / %R, Well 1): 94%
- % recovery ([3]; Well 2 / %R, Well 2): 87% (2×) and 92% (2×)
- % recovery ([3]; Well 3 / %R, Well 3): 99% (2×) and 87% (2×)
- % recovery ([3]; Well 4 / %R, Well 4): 93% (2×) and 85% (2×)
- % recovery ([3]; Well 5 / %R, Well 5): 87% (2×) and 86% (2×)
- Δ % diffusion [5]: ↑14%
- Papp at 500 uM (in vitro): 1.94 ± 0.22 ×10⁻⁶ cm/s
Compound: CCCCC[C@H](OC(=O)[C@@H](C)N(C)C(=O)[C@H](CCCCC)OC(=O)[C@@H](C)N(C)C(=O)[C@H](CCCCC)OC(=O)[C@@H](C)N(C)C(=O)[C@H](CCCCC)OC(=O)[C@@H](C)N(C)C(=O)OC(C)(C)C)C(=O)OCc1ccccc1 [Compound L1.4]
- Acceptor Concentration (PAMPA [4]; [7]): 52.3 µM
- Acceptor Concentration (PAMPA [4]; [8]): 57.9 µM
- Acceptor Concentration (PAMPA [4]; [9]): 64.4 µM
- Acceptor Concentration (PAMPA [4]; [10]): 61.4 µM
- Acceptor Concentration (PAMPA [4]; [11]): 62.2 µM
- Acceptor Concentration (PAMPA [4]; [12]): 61.3 µM
- Acceptor Concentration (PAMPA [4]; [13]): 51.5 µM
- Acceptor Concentration (PAMPA [4]; [14]): 55 µM
- Acceptor Concentration (PAMPA [4]; [15]): 59.1 µM
- Acceptor Concentration (PAMPA [4]; [16]): 51.7 µM
- Acceptor Concentration (PAMPA [4]; Acceptor Concentration (uM) / experiment 1): 52.3 µM
- Acceptor Concentration (PAMPA [4]; Acceptor Concentration (uM) / experiment 2): 57.9 µM
- Acceptor Concentration (PAMPA [4]; Acceptor Concentration (uM) / experiment 3): 64.4 µM
- Acceptor Concentration (PAMPA [4]; Acceptor Concentration (uM) / experiment 4): 61.4 µM
- Acceptor Concentration (PAMPA [4]; Acceptor Concentration (uM) / experiment 5): 62.2 µM
- Acceptor Concentration (PAMPA [4]; Acceptor Concentration (uM) / experiment 6): 61.3 µM
- Acceptor Concentration (PAMPA [4]; Acceptor Concentration (uM) / experiment 7): 51.5 µM
- Acceptor Concentration (PAMPA [4]; Acceptor Concentration (uM) / experiment 8): 55 µM
- Acceptor Concentration (PAMPA [4]; Acceptor Concentration (uM) / experiment 9): 59.1 µM
- Acceptor Concentration (PAMPA [4]; Acceptor Concentration (uM) / experiment 10): 51.7 µM
- donor concentration after incubation ([6]; Well 1 / [donor], Well 1): 417 µM and 390 µM
- donor concentration after incubation ([6]; Well 1 / [donor], Well 1, standard curve): 417 µM and 390 µM
- donor concentration after incubation ([6]; Well 2 / [donor], Well 2): 379 µM and 406 µM
- donor concentration after incubation ([6]; Well 2 / [donor], Well 2, standard curve): 379 µM and 406 µM
- donor concentration after incubation ([6]; Well 3 / [donor], Well 3): 432 µM and 382 µM
- donor concentration after incubation ([6]; Well 3 / [donor], Well 3, standard curve): 432 µM and 382 µM
- donor concentration after incubation ([6]; Well 4 / [donor], Well 4): 404 µM and 364 µM
- donor concentration after incubation ([6]; Well 4 / [donor], Well 4, standard curve): 404 µM and 364 µM
- donor concentration after incubation ([6]; Well 5 / [donor], Well 5): 372 µM and 379 µM
- donor concentration after incubation ([6]; Well 5 / [donor], Well 5, standard curve): 372 µM and 379 µM

- %T ([1]; Well 1 / %T, Well 1): 0.47% and 0.5%
- %T ([1]; Well 2 / %T, Well 2): 0.47% and 0.52%
- %T ([1]; Well 3 / %T, Well 3): 0.49%
- %T ([1]; Well 4 / %T, Well 4): 0.48% and 0.5%
- %T ([1]; Well 5 / %T, Well 5): 0.49% and 0.5%
- Papp (PAMPA [2]; Papp (x 10^-6 cm/s) / [row 1]): 3.57 ×10⁻⁶ cm/s
- Papp (PAMPA [2]; Papp (x 10^-6 cm/s) / [row 2]): 4.24 ×10⁻⁶ cm/s
- Papp (PAMPA [2]; Papp (x 10^-6 cm/s) / [row 3]): 3.98 ×10⁻⁶ cm/s
- Papp (PAMPA [2]; Papp (x 10^-6 cm/s) / [row 4]): 4.55 ×10⁻⁶ cm/s
- Papp (PAMPA [2]; Papp (x 10^-6 cm/s) / [row 5]): 4.01 ×10⁻⁶ cm/s
- Papp (PAMPA [2]; Papp (x 10^-6 cm/s) / [row 6]): 3.22 ×10⁻⁶ cm/s
- Papp (PAMPA [2]; Papp (x 10^-6 cm/s) / [row 7]): 3.32 ×10⁻⁶ cm/s
- Papp (PAMPA [2]; Papp (x 10^-6 cm/s) / [row 8]): 4.45 ×10⁻⁶ cm/s
- Papp (PAMPA [2]; Papp (x 10^-6 cm/s) / [row 9]): 4.33 ×10⁻⁶ cm/s
- Papp (PAMPA [2]; Papp (x 10^-6 cm/s) / [row 10]): 4.04 ×10⁻⁶ cm/s
- % recovery ([3]; Well 1 / %R, Well 1): 97% and 99%
- % recovery ([3]; Well 2 / %R, Well 2): 94%
- % recovery ([3]; Well 3 / %R, Well 3): 96%
- % recovery ([3]; Well 4 / %R, Well 4): 92% and 84%
- % recovery ([3]; Well 5 / %R, Well 5): 98% and 88%
- LogPapp [5]: -5.40 ± 0.05
- Δ % diffusion [5]: ↑19%
- Papp at 500 uM (in vitro): 3.97 ± 0.46 ×10⁻⁶ cm/s
Compound: CCCCC[C@H](NC(=O)[C@@H](C)N(C)C(=O)OC(C)(C)C)C(=O)N(C)[C@H](C)C(=O)O[C@@H](CCCCC)C(=O)N(C)[C@H](C)C(=O)O[C@@H](CCCCC)C(=O)N(C)[C@H](C)C(=O)O[C@@H](CCCCC)C(=O)OCc1ccccc1 [Compound L2.1] (Boc-[dNMeA][Ahp(2)][dNMeA][X1][dNMeA][X1][dNMeA]-X2)
- Acceptor Concentration (PAMPA [4]; [7]): 83.2 µM
- Acceptor Concentration (PAMPA [4]; [8]): 94.6 µM
- Acceptor Concentration (PAMPA [4]; [9]): 90.8 µM
- Acceptor Concentration (PAMPA [4]; [10]): 98.2 µM
- Acceptor Concentration (PAMPA [4]; [11]): 93.2 µM
- Acceptor Concentration (PAMPA [4]; [12]): 76.9 µM
- Acceptor Concentration (PAMPA [4]; [13]): 74.6 µM
- Acceptor Concentration (PAMPA [4]; [14]): 97.5 µM
- Acceptor Concentration (PAMPA [4]; [15]): 85.3 µM
- Acceptor Concentration (PAMPA [4]; [16]): 83.9 µM
- donor concentration after incubation ([6]; Well 1 / [donor], Well 1): 402 µM and 418 µM
- donor concentration after incubation ([6]; Well 2 / [donor], Well 2): 377 µM and 393 µM
- donor concentration after incubation ([6]; Well 3 / [donor], Well 3): 388 µM and 368 µM
- donor concentration after incubation ([6]; Well 4 / [donor], Well 4): 363 µM and 335 µM
- donor concentration after incubation ([6]; Well 5 / [donor], Well 5): 395 µM and 356 µM
